Source: PMC7486443, “Generation of Phenothiazine with Potent Anti-TLK1 Activity for Prostate Cancer Therapy” (iScience, 2020)

How the values were obtained:
Experiment in all cases: biochemical
Set-up in all cases: DiscoverX KINOMEscan scanMAX competition binding panel, single concentration, percent of control; remaining binding: dose or concentration left out as unconfirmed
Conditions in all cases: KINOMEscan binding, percent of control; read-out: Table S4_SCANMAX REPORT - related to Fig. 1 / Percent Control
ZAP70 = ZAP70 (Homo sapiens, UniProt P43403)
PFPK5(P.falciparum) = target: T1, PFPK5(P.falciparum) (Plasmodium falciparum, UniProt P61075)
T1 construct: gene MAL13P1.279

DYRK1A = DYRK1A (Homo sapiens, UniProt Q13627)
EPHA8 = EPHA8 (Homo sapiens, UniProt P29322)
MLK1 = target: T2, MLK1 (Homo sapiens, UniProt P80192)
T2 construct: gene MAP3K9

MYO3A = MYO3A (Homo sapiens, UniProt Q8NEV4)
PIP5K2B = target: T3, PIP5K2B (Homo sapiens, UniProt P78356)
T3 construct: gene PIP4K2B

MLCK = target: T4, MLCK (Homo sapiens, UniProt Q32MK0)
T4 construct: gene MYLK3

YSK4 = target: T5, YSK4 (Homo sapiens, UniProt Q56UN5)
T5 construct: gene MAP3K19

ERBB3 = ERBB3 (Homo sapiens, UniProt P21860)
MST1 = target: T6, MST1 (Homo sapiens, UniProt Q13043)
T6 construct: gene STK4

ERK8 = target: T7, ERK8 (Homo sapiens, UniProt Q8TD08)
T7 construct: gene MAPK15

AKT2 = AKT2 (Homo sapiens, UniProt P31751)
ANKK1 = ANKK1 (Homo sapiens, UniProt Q8NFD2)
MRCKA = target: T8, MRCKA (Homo sapiens, UniProt Q5VT25)
T8 construct: gene CDC42BPA

LIMK2 = LIMK2 (Homo sapiens, UniProt P53671)
LATS2 = LATS2 (Homo sapiens, UniProt Q9NRM7)
PIKFYVE = PIKFYVE (Homo sapiens, UniProt Q9Y2I7)

Sequence of AKT2 (P31751 whole entry): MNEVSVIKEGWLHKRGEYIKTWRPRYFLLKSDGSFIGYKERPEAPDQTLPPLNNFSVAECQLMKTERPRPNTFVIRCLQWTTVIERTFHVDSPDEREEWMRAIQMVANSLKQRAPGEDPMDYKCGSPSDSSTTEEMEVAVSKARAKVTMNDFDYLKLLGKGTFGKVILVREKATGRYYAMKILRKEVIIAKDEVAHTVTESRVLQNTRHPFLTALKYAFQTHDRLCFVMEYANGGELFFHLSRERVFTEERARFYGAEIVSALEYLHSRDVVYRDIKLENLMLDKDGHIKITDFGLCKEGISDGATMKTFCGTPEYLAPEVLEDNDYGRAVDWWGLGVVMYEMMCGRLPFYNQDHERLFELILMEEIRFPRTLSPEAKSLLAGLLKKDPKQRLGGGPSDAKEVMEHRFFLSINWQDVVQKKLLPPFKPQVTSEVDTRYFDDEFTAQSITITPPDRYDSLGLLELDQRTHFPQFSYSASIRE
T2 sequence (P80192 whole entry): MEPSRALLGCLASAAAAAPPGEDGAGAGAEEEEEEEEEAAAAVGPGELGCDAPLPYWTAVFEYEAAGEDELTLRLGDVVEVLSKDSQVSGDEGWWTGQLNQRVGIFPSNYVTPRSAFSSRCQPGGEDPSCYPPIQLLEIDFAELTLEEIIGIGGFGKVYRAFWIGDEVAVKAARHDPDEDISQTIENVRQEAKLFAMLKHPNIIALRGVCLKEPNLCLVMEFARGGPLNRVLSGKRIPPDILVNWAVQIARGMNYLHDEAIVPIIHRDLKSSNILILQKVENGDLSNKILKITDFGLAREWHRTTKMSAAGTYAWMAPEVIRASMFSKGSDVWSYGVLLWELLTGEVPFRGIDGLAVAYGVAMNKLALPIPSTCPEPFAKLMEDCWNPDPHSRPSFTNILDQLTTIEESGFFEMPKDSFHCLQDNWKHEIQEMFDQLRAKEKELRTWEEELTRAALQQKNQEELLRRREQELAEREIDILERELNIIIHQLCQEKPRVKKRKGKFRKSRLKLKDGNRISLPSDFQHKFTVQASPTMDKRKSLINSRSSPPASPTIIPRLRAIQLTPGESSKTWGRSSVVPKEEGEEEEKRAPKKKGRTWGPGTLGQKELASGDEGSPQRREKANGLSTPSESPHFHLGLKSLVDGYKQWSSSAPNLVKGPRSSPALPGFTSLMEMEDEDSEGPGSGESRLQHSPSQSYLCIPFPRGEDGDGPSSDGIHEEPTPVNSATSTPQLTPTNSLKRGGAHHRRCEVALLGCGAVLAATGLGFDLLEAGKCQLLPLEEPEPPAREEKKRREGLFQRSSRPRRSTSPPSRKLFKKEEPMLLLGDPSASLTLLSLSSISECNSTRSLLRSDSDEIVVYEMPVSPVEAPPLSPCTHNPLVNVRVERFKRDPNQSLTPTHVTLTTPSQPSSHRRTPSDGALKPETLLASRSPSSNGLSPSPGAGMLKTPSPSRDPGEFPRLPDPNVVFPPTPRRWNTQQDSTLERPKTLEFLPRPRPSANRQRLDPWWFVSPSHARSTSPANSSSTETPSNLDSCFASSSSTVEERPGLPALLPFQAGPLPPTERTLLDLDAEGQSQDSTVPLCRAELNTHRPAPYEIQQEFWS
T4 sequence (Q32MK0 whole entry): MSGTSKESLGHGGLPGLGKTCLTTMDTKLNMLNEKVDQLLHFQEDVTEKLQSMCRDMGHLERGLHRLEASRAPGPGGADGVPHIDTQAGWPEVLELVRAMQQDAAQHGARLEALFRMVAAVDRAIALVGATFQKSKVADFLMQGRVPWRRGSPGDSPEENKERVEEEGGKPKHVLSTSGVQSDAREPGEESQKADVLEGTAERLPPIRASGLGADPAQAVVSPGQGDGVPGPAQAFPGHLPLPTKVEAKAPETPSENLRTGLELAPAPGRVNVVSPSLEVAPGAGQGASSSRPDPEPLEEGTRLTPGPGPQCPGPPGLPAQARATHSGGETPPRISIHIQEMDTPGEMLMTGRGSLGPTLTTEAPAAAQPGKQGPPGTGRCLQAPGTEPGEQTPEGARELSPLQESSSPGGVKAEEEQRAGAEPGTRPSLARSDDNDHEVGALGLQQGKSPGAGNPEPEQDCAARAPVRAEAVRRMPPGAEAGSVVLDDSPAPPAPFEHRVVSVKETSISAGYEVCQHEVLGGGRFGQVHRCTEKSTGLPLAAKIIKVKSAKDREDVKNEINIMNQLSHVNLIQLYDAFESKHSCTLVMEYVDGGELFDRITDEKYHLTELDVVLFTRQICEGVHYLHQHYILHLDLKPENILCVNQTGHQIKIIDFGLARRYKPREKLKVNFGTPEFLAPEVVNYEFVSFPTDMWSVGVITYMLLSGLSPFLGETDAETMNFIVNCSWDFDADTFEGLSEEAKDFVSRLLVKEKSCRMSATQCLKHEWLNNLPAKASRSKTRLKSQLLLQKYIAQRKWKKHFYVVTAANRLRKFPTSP
T3 sequence (P78356 whole entry): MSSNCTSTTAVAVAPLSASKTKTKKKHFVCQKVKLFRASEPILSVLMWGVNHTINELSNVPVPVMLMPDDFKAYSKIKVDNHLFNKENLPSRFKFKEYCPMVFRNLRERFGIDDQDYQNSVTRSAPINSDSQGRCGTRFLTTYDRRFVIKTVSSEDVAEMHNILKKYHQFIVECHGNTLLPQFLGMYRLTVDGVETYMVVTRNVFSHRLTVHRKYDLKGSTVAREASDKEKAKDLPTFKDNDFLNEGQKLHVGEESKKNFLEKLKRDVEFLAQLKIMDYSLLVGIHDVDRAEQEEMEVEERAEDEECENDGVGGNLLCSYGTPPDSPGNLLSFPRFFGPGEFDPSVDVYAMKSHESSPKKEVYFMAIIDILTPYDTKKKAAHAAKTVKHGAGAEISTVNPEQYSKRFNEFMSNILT
T7 sequence (Q8TD08 whole entry): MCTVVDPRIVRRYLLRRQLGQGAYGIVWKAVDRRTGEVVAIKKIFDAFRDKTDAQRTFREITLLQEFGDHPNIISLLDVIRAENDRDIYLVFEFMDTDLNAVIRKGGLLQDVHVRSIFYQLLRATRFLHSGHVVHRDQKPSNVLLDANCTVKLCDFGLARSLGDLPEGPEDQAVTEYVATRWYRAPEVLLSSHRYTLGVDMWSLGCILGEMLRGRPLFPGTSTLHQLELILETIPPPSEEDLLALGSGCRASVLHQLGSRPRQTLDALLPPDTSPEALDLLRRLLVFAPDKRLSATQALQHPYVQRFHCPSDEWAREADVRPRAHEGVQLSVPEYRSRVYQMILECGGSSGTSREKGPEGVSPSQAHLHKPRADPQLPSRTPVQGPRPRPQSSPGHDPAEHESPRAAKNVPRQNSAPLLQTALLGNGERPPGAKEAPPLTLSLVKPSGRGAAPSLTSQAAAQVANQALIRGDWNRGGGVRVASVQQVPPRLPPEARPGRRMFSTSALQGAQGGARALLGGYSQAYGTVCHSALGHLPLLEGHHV
Sequence of ZAP70 (P43403 whole entry): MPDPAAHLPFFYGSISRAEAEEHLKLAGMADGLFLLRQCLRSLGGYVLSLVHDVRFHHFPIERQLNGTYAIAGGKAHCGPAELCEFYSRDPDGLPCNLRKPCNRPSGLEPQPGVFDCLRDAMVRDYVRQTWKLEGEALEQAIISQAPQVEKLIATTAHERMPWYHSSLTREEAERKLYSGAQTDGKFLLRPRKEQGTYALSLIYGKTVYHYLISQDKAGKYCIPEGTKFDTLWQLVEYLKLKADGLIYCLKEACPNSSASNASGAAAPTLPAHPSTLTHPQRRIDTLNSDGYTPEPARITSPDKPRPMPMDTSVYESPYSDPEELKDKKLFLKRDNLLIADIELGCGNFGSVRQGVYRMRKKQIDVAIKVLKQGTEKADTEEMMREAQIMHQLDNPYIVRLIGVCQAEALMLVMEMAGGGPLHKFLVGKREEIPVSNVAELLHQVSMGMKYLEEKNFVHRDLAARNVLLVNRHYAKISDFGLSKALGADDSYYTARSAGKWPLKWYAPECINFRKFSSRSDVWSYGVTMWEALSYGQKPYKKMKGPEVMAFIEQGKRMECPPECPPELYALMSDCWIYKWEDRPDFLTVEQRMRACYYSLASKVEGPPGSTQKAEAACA
Sequence of ANKK1 (Q8NFD2 whole entry): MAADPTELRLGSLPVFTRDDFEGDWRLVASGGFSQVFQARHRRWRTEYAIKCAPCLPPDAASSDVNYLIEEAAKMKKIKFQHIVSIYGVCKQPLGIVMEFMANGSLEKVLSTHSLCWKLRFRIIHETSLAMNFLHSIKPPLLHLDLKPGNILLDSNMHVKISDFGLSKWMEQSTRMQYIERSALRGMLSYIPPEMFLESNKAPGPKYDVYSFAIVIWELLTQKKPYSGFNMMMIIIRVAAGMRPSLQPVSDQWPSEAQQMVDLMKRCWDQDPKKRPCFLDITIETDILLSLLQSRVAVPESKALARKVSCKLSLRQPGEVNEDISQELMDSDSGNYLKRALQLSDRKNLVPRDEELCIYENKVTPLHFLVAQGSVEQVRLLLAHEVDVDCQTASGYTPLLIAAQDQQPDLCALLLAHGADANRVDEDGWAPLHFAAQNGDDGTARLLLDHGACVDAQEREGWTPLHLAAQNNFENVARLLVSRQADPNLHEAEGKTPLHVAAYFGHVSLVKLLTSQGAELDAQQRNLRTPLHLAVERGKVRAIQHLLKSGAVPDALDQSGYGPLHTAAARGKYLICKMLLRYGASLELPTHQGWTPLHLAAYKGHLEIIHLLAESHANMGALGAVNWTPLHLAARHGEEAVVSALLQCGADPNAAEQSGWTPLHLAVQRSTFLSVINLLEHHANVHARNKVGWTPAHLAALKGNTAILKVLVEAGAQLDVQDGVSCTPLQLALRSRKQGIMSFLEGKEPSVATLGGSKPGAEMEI
T1 sequence (P61075 whole entry): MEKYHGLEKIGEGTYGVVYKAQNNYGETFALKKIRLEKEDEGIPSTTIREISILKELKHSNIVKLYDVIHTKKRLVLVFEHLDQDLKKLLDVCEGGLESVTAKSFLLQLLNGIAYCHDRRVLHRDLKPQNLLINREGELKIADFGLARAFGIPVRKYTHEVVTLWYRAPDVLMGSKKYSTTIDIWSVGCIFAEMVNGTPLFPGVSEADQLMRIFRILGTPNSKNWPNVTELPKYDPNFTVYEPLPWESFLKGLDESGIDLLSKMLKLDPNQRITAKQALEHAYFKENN

c1ccc2c(c1)Sc1ccccc1N2CCN1CCOCC1 [J54]
remaining binding (ZAP70): 100%
remaining binding (PFPK5(P.falciparum)): 98%
remaining binding (DYRK1A): 80%
remaining binding (EPHA8): 100%
remaining binding (MLK1): 97%
remaining binding (MYO3A): 100%
remaining binding (PIP5K2B): 51%
remaining binding (MLCK): 79%
remaining binding (YSK4): 86%
remaining binding (ERBB3): 78%
remaining binding (MST1): 100%
remaining binding (ERK8): 89%
remaining binding (AKT2): 100%
remaining binding (ANKK1): 100%
remaining binding (MRCKA): 99%
remaining binding (LIMK2): 100%
remaining binding (LATS2): 90%
remaining binding (PIKFYVE): 94%
